Assay results as given in patent publication US7223773B2, “4-oxoquinolizine antibacterial agent having 2-pyridone skeleton as partial structure” (Salo Pharmaceutical Co., Ltd., priority 2001, dated 2007).
In brackets after ≈: the same amount, converted by molar mass.

Legend:
Assay type in all cases: cell-based
[1] = system: Bacillus subtilis JCM 2499; experiment: in vitro antibacterial activity, agar plate dilution method (MIC); conditions: JCM2499, read-out: Antimicrobial spectrum MIC
Experimental: (§1) The in vitro antibacterial activities of the compounds provided by the present invention were tested by a standard method of Chemotherapy Society of Japan, i.e. an agar plate dilution method disclosed in CHEMOTHERAPY Vol. 29, pages 76–79, 1981, and the activities of them on anaerobic bacteria were tested by a method disclosed in CHEMOTHERAPY Vol. 27, 559–590, 1979. The results were shown in terms of the minimum inhibition concentration (MIC, μg/ml) for the growth of the bacteria.

[2] = system: Branhamella catarrhalis IID 5233; experiment: as above; conditions: Moraxella catarrhalis, IID5233, read-out: Antimicrobial spectrum MIC
Experimental: as §1

[3] = system: Enterococcus faecalis CSJ 1212; experiment: as above; conditions: CSJ1212, read-out: Antimicrobial spectrum MIC
Experimental: as §1

[4] = system: Enterococcus faecalis RIMD 3116001; experiment: as above; conditions: RIMD3116001, read-out: Antimicrobial spectrum MIC
Experimental: as §1

[5] = system: Escherichia coli IFO 12734; experiment: as above; conditions: IFO12734, read-out: Antimicrobial spectrum MIC
Experimental: as §1

[6] = system: Haemophilus influenzae IID 984; experiment: as above; conditions: IID984, read-out: Antimicrobial spectrum MIC
Experimental: as §1

[7] = system: Klebsiella pneumoniae IID 865; experiment: as above; conditions: IID865, read-out: Antimicrobial spectrum MIC
Experimental: as §1

[8] = system: Micrococcus luteus KI 3122; experiment: as above; conditions: KI3122, read-out: Antimicrobial spectrum MIC
Experimental: as §1

[9] = system: Pseudomonas aeruginosa CSJ 1853; experiment: as above; conditions: CSJ1853, read-out: Antimicrobial spectrum MIC
Experimental: as §1

[10] = system: Staphylococcus aureus Clin-211(MRSA); experiment: as above; conditions: read-out: Antimicrobial spectrum MIC
Experimental: as §1

[11] = system: Staphylococcus aureus IFO 13276; experiment: as above; conditions: IFO13276, read-out: Antimicrobial spectrum MIC
Experimental: as §1

[12] = system: Staphylococcus aureus IID 803(Smith); experiment: as above; conditions: IID803, read-out: Antimicrobial spectrum MIC
Experimental: as §1

[13] = system: Staphylococcus aureus JCM 2874; experiment: as above; conditions: JCM2874, read-out: Antimicrobial spectrum MIC
Experimental: as §1

[14] = system: Staphylococcus epidermidis IFO 12993; experiment: as above; conditions: IFO12993, read-out: Antimicrobial spectrum MIC
Experimental: as §1

[15] = system: Streptococcus pneumoniae IID 553; experiment: as above; conditions: IID553, read-out: Antimicrobial spectrum MIC
Experimental: as §1

[16] = system: Bacteroides fragilis GAI 0675; experiment: in vitro antibacterial activity on anaerobic bacteria (MIC); conditions: GAI0675; Bacteroides fragilis GAI 0675, anaerobic; read-out: Antimicrobial spectrum MIC
Experimental: as §1

[17] = system: Bacteroides thetaiotaomicron ATCC 29741; experiment: as above; conditions: ATCC29741; Bacteroides thetaiotaomicron ATCC 29741, anaerobic; read-out: Antimicrobial spectrum MIC
Experimental: as §1

[18] = system: Propionibacterium acnes JCM 6425; experiment: as above; conditions: Cutibacterium acnes, JCM6425; Propionibacterium acnes JCM 6425, anaerobic; read-out: Antimicrobial spectrum MIC
Experimental: as §1

Cc1ccc(-c2ccn3c(=O)c(C(=O)O)cc(C4CC4)c3c2C)cc1 [Example 31, 1-Cyclopropyl-9-methyl-4-oxo-8-p-tolyl-4H-quinolizine-3-carboxylic acid]
MIC [1]: ≤ 0.004 µg/mL
MIC [2]: 0.031 µg/mL (≈ 0.093 µM)
MIC [3]: 0.25 µg/mL (≈ 0.75 µM)
MIC [4]: 0.5 µg/mL (≈ 1.5 µM)
MIC [5]: 0.125 µg/mL (≈ 0.375 µM)
MIC [6]: 0.125 µg/mL (≈ 0.375 µM)
MIC [7]: 0.031 µg/mL (≈ 0.093 µM)
MIC [8]: 0.125 µg/mL (≈ 0.375 µM)
MIC [9]: 0.5 µg/mL (≈ 1.5 µM)
MIC [10]: 0.125 µg/mL (≈ 0.375 µM)
MIC [11]: 0.008 µg/mL (≈ 0.024 µM)
MIC [12]: 0.008 µg/mL (≈ 0.024 µM)
MIC [13]: 0.008 µg/mL (≈ 0.024 µM)
MIC [14]: 0.016 µg/mL (≈ 0.048 µM)
MIC [15]: 0.5 µg/mL (≈ 1.5 µM)
MIC [16]: 0.25 µg/mL (≈ 0.75 µM)
MIC [17]: 1 µg/mL (≈ 3 µM)
MIC [18]: 0.25 µg/mL (≈ 0.75 µM)

COc1ccc(-c2ccn3c(=O)c(C(=O)O)cc(C4CC4)c3c2C)cn1 [Example 32, 1-Cyclopropyl-8-(6-methoxypyridin-3-yl)-9-methyl-4-oxo-4H-quinolizine-3-carboxylic acid]
MIC [1]: ≤ 0.004 µg/mL
MIC [2]: 0.031 µg/mL (≈ 0.0885 µM)
MIC [3]: 0.125 µg/mL (≈ 0.357 µM)
MIC [4]: 0.25 µg/mL (≈ 0.714 µM)
MIC [5]: 0.25 µg/mL (≈ 0.714 µM)
MIC [6]: 0.063 µg/mL (≈ 0.18 µM)
MIC [7]: 0.016 µg/mL (≈ 0.0457 µM)
MIC [8]: 0.25 µg/mL (≈ 0.714 µM)
MIC [9]: 1 µg/mL (≈ 2.85 µM)
MIC [10]: 0.125 µg/mL (≈ 0.357 µM)
MIC [11]: 0.008 µg/mL (≈ 0.0228 µM)
MIC [12]: 0.008 µg/mL (≈ 0.0228 µM)
MIC [13]: 0.016 µg/mL (≈ 0.0457 µM)
MIC [14]: 0.016 µg/mL (≈ 0.0457 µM)
MIC [15]: 0.5 µg/mL (≈ 1.43 µM)
MIC [16]: 0.063 µg/mL (≈ 0.18 µM)
MIC [17]: 0.25 µg/mL (≈ 0.714 µM)
MIC [18]: 0.008 µg/mL (≈ 0.0228 µM)

COc1ccc(-c2ccn3c(=O)c(C(=O)O)cc(C4CC4)c3c2C)cc1CN [Example 121, 8-(3-Aminomethyl-4-methoxyphenyl)-1-cyclopropyl-9-methyl-4-oxo-4H-quinolizine-3-carboxylic acid]
MIC [1]: ≤ 0.004 µg/mL
MIC [2]: 0.063 µg/mL (≈ 0.166 µM)
MIC [3]: 0.031 µg/mL (≈ 0.0819 µM)
MIC [4]: 0.063 µg/mL (≈ 0.166 µM)
MIC [5]: 0.063 µg/mL (≈ 0.166 µM)
MIC [6]: 0.008 µg/mL (≈ 0.0211 µM)
MIC [7]: ≤ 0.004 µg/mL
MIC [8]: 0.125 µg/mL (≈ 0.33 µM)
MIC [9]: 0.5 µg/mL (≈ 1.32 µM)
MIC [10]: 0.25 µg/mL (≈ 0.661 µM)
MIC [11]: 0.016 µg/mL (≈ 0.0423 µM)
MIC [12]: 0.016 µg/mL (≈ 0.0423 µM)
MIC [13]: 0.016 µg/mL (≈ 0.0423 µM)
MIC [14]: 0.031 µg/mL (≈ 0.0819 µM)
MIC [15]: 0.031 µg/mL (≈ 0.0819 µM)
MIC [16]: 0.5 µg/mL (≈ 1.32 µM)
MIC [17]: 4 µg/mL (≈ 10.6 µM)
MIC [18]: 0.25 µg/mL (≈ 0.661 µM)

Cc1c(-c2ccc(NCCO)cc2)ccn2c(=O)c(C(=O)O)cc(C3CC3)c12 [Example 46, 1-cyclopropyl-8-[4-(2-hydroxyethylamino)phenyl]-9-methyl-4-oxo-4H-quinolizine-3-carboxylic acid]
MIC [1]: ≤ 0.004 µg/mL
MIC [2]: 0.016 µg/mL (≈ 0.0423 µM)
MIC [3]: 0.063 µg/mL (≈ 0.166 µM)
MIC [4]: 0.063 µg/mL (≈ 0.166 µM)
MIC [5]: 0.125 µg/mL (≈ 0.33 µM)
MIC [6]: 0.031 µg/mL (≈ 0.0819 µM)
MIC [7]: 0.063 µg/mL (≈ 0.166 µM)
MIC [8]: 0.125 µg/mL (≈ 0.33 µM)
MIC [9]: 1 µg/mL (≈ 2.64 µM)
MIC [10]: 0.031 µg/mL (≈ 0.0819 µM)
MIC [11]: ≤ 0.004 µg/mL
MIC [12]: ≤ 0.004 µg/mL
MIC [13]: ≤ 0.004 µg/mL
MIC [14]: 0.008 µg/mL (≈ 0.0211 µM)
MIC [15]: 0.125 µg/mL (≈ 0.33 µM)
MIC [16]: 0.125 µg/mL (≈ 0.33 µM)
MIC [17]: 0.25 µg/mL (≈ 0.661 µM)
MIC [18]: 0.016 µg/mL (≈ 0.0423 µM)

Cc1c(-c2ccc(C#N)cc2)ccn2c(=O)c(C(=O)O)cc(C3CC3)c12 [Example 36, 8-(4-Cyanophenyl)-1-cyclopropyl-9-methyl-4-oxo-4H-quinolizine-3-carboxylic acid]
MIC [1]: ≤ 0.004 µg/mL
MIC [2]: 0.031 µg/mL (≈ 0.09 µM)
MIC [3]: 0.25 µg/mL (≈ 0.726 µM)
MIC [4]: 0.25 µg/mL (≈ 0.726 µM)
MIC [5]: 0.25 µg/mL (≈ 0.726 µM)
MIC [6]: 0.063 µg/mL (≈ 0.183 µM)
MIC [7]: 0.031 µg/mL (≈ 0.09 µM)
MIC [8]: 0.125 µg/mL (≈ 0.363 µM)
MIC [9]: 0.5 µg/mL (≈ 1.45 µM)
MIC [10]: 0.125 µg/mL (≈ 0.363 µM)
MIC [11]: 0.016 µg/mL (≈ 0.0465 µM)
MIC [12]: 0.008 µg/mL (≈ 0.0232 µM)
MIC [13]: 0.016 µg/mL (≈ 0.0465 µM)
MIC [14]: 0.016 µg/mL (≈ 0.0465 µM)
MIC [15]: 0.5 µg/mL (≈ 1.45 µM)
MIC [16]: 0.125 µg/mL (≈ 0.363 µM)
MIC [17]: 0.5 µg/mL (≈ 1.45 µM)
MIC [18]: 0.063 µg/mL (≈ 0.183 µM)

Cc1c(-c2ccc(N)cc2)ccn2c(=O)c(C(=O)O)cc(C3CC3)c12 [Example 27, 8-(4-Aminophenyl)-1-cyclopropyl-9-methyl-4-oxo-4H-quinolizine-3-carboxylic acid]
MIC [1]: ≤ 0.004 µg/mL
MIC [2]: ≤ 0.004 µg/mL
MIC [3]: 0.031 µg/mL (≈ 0.0927 µM)
MIC [4]: 0.063 µg/mL (≈ 0.188 µM)
MIC [5]: 0.063 µg/mL (≈ 0.188 µM)
MIC [6]: 0.008 µg/mL (≈ 0.0239 µM)
MIC [7]: ≤ 0.004 µg/mL
MIC [8]: 0.063 µg/mL (≈ 0.188 µM)
MIC [9]: 0.25 µg/mL (≈ 0.748 µM)
MIC [10]: 0.031 µg/mL (≈ 0.0927 µM)
MIC [11]: ≤ 0.004 µg/mL
MIC [12]: ≤ 0.004 µg/mL
MIC [13]: ≤ 0.004 µg/mL
MIC [14]: 0.008 µg/mL (≈ 0.0239 µM)
MIC [15]: 0.125 µg/mL (≈ 0.374 µM)
MIC [16]: 0.031 µg/mL (≈ 0.0927 µM)
MIC [17]: 0.125 µg/mL (≈ 0.374 µM)
MIC [18]: 0.031 µg/mL (≈ 0.0927 µM)

Cc1c(-c2cccc(CN3CCNCC3)c2)ccn2c(=O)c(C(=O)O)cc(C3CC3)c12 [Example 119, 1-Cyclopropyl-9-methyl-4-oxo-8-(3-piperazin-1-ylmethylphenyl)-4H-quinolizine-3-carboxylic acid]
MIC [1]: 0.016 µg/mL (≈ 0.0383 µM)
MIC [2]: 0.25 µg/mL (≈ 0.599 µM)
MIC [3]: 0.5 µg/mL (≈ 1.2 µM)
MIC [4]: 1 µg/mL (≈ 2.4 µM)
MIC [5]: 1 µg/mL (≈ 2.4 µM)
MIC [6]: 0.25 µg/mL (≈ 0.599 µM)
MIC [7]: 0.063 µg/mL (≈ 0.151 µM)
MIC [8]: 1 µg/mL (≈ 2.4 µM)
MIC [9]: 4 µg/mL (≈ 9.58 µM)
MIC [10]: 1 µg/mL (≈ 2.4 µM)
MIC [11]: 0.063 µg/mL (≈ 0.151 µM)
MIC [12]: 0.063 µg/mL (≈ 0.151 µM)
MIC [13]: 0.063 µg/mL (≈ 0.151 µM)
MIC [14]: 0.125 µg/mL (≈ 0.299 µM)
MIC [15]: 0.5 µg/mL (≈ 1.2 µM)
MIC [16]: 1 µg/mL (≈ 2.4 µM)
MIC [17]: 2 µg/mL (≈ 4.79 µM)
MIC [18]: 2 µg/mL (≈ 4.79 µM)

Cc1c(-c2ccc(N)c(F)c2)ccn2c(=O)c(C(=O)O)cc(C3CC3)c12 [Example 97, 8-(4-amino-3-fluorophenyl)-1-cyclopropyl-9-methyl-4-oxo-4H-quinolizine-3-carboxylic acid]
MIC [2]: 0.031 µg/mL (≈ 0.088 µM)
MIC [3]: 0.125 µg/mL (≈ 0.355 µM)
MIC [4]: 0.25 µg/mL (≈ 0.709 µM)
MIC [5]: 0.063 µg/mL (≈ 0.179 µM)
MIC [6]: 0.031 µg/mL (≈ 0.088 µM)
MIC [7]: 0.031 µg/mL (≈ 0.088 µM)
MIC [8]: 0.125 µg/mL (≈ 0.355 µM)
MIC [9]: 0.25 µg/mL (≈ 0.709 µM)
MIC [10]: 0.063 µg/mL (≈ 0.179 µM)
MIC [11]: 0.016 µg/mL (≈ 0.0454 µM)
MIC [12]: ≤ 0.004 µg/mL
MIC [13]: ≤ 0.004 µg/mL
MIC [14]: 0.016 µg/mL (≈ 0.0454 µM)
MIC [15]: 0.25 µg/mL (≈ 0.709 µM)
MIC [16]: 0.031 µg/mL (≈ 0.088 µM)
MIC [17]: 0.125 µg/mL (≈ 0.355 µM)
MIC [18]: 0.031 µg/mL (≈ 0.088 µM)
